# Test results published in patent US8551939B2, “Peptide analogues, particularly for the treatment of chronic pain” (Instytut Medycyny Doswiadczalnej I Klinicznej, priority 2008, dated 2013).
# Where a SMILES comes first, the peptide text is derived from it. [ ]: non-standard residue; d: D form.
# Experiments:
# Type in all cases: in vivo
# [1] = test system: mice with inflammation due to tumour take; test: Oncogenic pain model (murine melanoma cells into the hind leg), tail immersion in 55° C. water; details: two weeks of melanoma tumour development, intraperitoneal, 30 mg/kg
# Method: In an animal oncogenic pain model, in mice, inflammation was induced via the administration of about a million murine melanoma cells into the hind leg. After two days we observed increasing inflammation due to tumour take. After two weeks of tumour development we examined the effect of Tyrosyl-D-arginyl-phenylalanyl-phenylalanyl-lysyl-lysyl-prolyl-tyrosyl-isoleucyl-leucine against acute pain elicited by tail immersion in 55° C. water.
# mice with inflammation = test: Tail immersion (55° C.) acute pain test in mice with Freund's adjuvant induced paw inflammation; details: one week after Freund's adjuvant into the paw, intravenous, 20 mg/kg
# Method: Inflammation was induced in mice by administering Freund's adjuvant into the paw. Inflammation was observed within two days. After a week, we examined the analgesic activity of the peptide analogue Tyrosyl-D-lysyl-phenylalanyl-phenylalanyl-arginyl-arginyl-prolyl-tyrosyl-isoleucyl-leucine against acute pain elicited by immersion of the tail into 55° C.
# rats = test: Analgesic activity against thermal pain after administration into the subarachnoid space via cannulae; details: subarachnoid cannula
# From the text: Two weeks prior to the experiment, rats were implanted with cannulae into the subarachnoid space. On the day of the experiment we examined analgesic activity by administering the peptide Tyrosyl-D-lysyl-phenylalanyl-phenylalanyl-lysyl-lysyl-prolyl-tyrosyl-isoleucyl-leucine.
structure (smiles),measurement,setting,value
CC[C@H](C)[C@H](NC(=O)[C@H](Cc1ccc(O)cc1)NC(=O)[C@@H]1CCCN1C(=O)[C@H](CCCCN)NC(=O)[C@H](CCCCN)NC(=O)[C@H](Cc1ccccc1)NC(=O)[C@H](Cc1ccccc1)NC(=O)[C@@H](CCCNC(=N)N)NC(=O)[C@@H](N)Cc1ccc(O)cc1)C(=O)N[C@@H](CC(C)C)C(=O)O [Tyrosyl-D-arginyl-phenylalanyl-phenylalanyl-lysyl-lysyl-prolyl-tyrosyl-isoleucyl-leucine] (H-Y[dR]FFKKPYIL-OH),effect against acute pain elicited by tail immersion in 55° C. water,[1],complete analgesis
CC[C@H](C)[C@H](NC(=O)[C@H](Cc1ccc(O)cc1)NC(=O)[C@@H]1CCCN1C(=O)[C@H](CCCNC(=N)N)NC(=O)[C@H](CCCNC(=N)N)NC(=O)[C@H](Cc1ccccc1)NC(=O)[C@H](Cc1ccccc1)NC(=O)[C@@H](CCCCN)NC(=O)[C@@H](N)Cc1ccc(O)cc1)C(=O)N[C@@H](CC(C)C)C(=O)O [Tyrosyl-D-lysyl-phenylalanyl-phenylalanyl-arginyl-arginyl-prolyl-tyrosyl-isoleucyl-leucine] (H-Y[dK]FFRRPYIL-OH),analgesic activity against acute pain elicited by immersion of the tail into 55° C.,mice with inflammation,complete analgesis
CC[C@H](C)[C@H](NC(=O)[C@H](Cc1ccc(O)cc1)NC(=O)[C@@H]1CCCN1C(=O)[C@H](CCCCN)NC(=O)[C@H](CCCCN)NC(=O)[C@H](Cc1ccccc1)NC(=O)[C@H](Cc1ccccc1)NC(=O)[C@@H](CCCCN)NC(=O)[C@@H](N)Cc1ccc(O)cc1)C(=O)N[C@@H](CC(C)C)C(=O)O [Tyrosyl-D-lysyl-phenylalanyl-phenylalanyl-lysyl-lysyl-prolyl-tyrosyl-isoleucyl-leucine] (H-Y[dK]FFKKPYIL-OH),change of analgesic effect on repeated administration (tolerance),rats; daily dose of 5 mg,no changes in the extensive analgesic effect
same,analgesic activity against thermal pain,rats; dose of 5 mg,complete analgesis
same,duration of complete analgesis against thermal pain,rats; dose of 5 mg,1 h
